Values of other authors in patent publication US20230104874A1, “HERBAL PREPARATION FOR PREVENTION AND TREATMENT OF HELICOBACTER PYLORI INFECTION” (HerbElixa DOO BEOGRAD- NOVI BEOGRAD, priority 2020, published 2023).

Legend:
H. pylori = settings: literature
Gram negative bacteria = settings: Korona-Glowniak et al. 2020

Row | SMILES | anti-H. pylori activity in vitro (H. pylori) | antibacterial activity against Gram negative bacteria (Gram negative bacteria)
1 | Cc1ccc(C(C)C)c(O)c1 [thymol] | high bactericidal activity | –
2 | Cc1ccc(C(C)C)cc1 [p-cymene] | – | no antibacterial activity
3 | Cc1ccc(C(C)C)cc1O [carvacrol] | bactericidal activity | –
4 | CC1=CCC(C(C)C)=CC1 [γ-terpinene] | – | no antibacterial activity
